Experimental data taken from ChEMBL document CHEMBL5053484, “Structure-Based Identification of Potent Lysine-Specific Demethylase 1 Inhibitor Peptides and Temporary Cyclization to Enhance Proteolytic Stability and Cell Growth-Inhibitory Activity” (J Med Chem, 2021).
Residues, ends and D or L forms follow the SMILES beside them.

Tests used:
HL-60 = test: cells; details: Homo sapiens, HL-60, 72 h
Description: Antiproliferative activity against human HL-60 cells measured after 72 hrs by alamarBlue assay

WI-38 = test: Antiproliferative activity against human WI-38 cells after 72 hrs by alamarBlue assay; assay type: cell-based; details: WI-38, 72 h
LSD1/CoREST complex = LSD1/CoREST complex (Homo sapiens, UniProt O60341); test: Inhibition of human LSD1/CoREST; assay type: protein-complex assay

Row | Compound | IC50 (HL-60) [µM] | Ki (LSD1/CoREST complex) [µM] | IC50 (WI-38) [µM]
1 | CC(C)C[C@@H]1NC(=O)[C@H](Cc2ccccc2)NC(=O)[C@H](CO)NC(=O)[C@H](CCCNC(=N)N)NC(=O)[C@@H]2CCCN2C(=O)OCCOCCn2cc(nn2)COc2cc(cc(C(=O)N[C@@H](CCCNC(=N)N)C(=O)N[C@@H](CCCNC(=N)N)C(=O)N[C@@H](CCCNC(=N)N)C(=O)N[C@@H](CCCNC(=N)N)C(=O)N[C@@H](CCCNC(=N)N)C(=O)N[C@@H](CCCNC(=N)N)C(=O)N[C@@H](CCCNC(=N)N)C(=O)N[C@@H](CCCNC(=N)N)C(=O)N[C@@H](CCCNC(=N)N)C(=O)N[C@@H](CCCNC(=N)N)C(N)=O)c2)OCc2cn(nn2)CCOCCOC(=O)NCCCC[C@@H](C(N)=O)NC(=O)[C@H](CCCNC(=N)N)NC(=O)[C@H](CCCNC(=N)N)NC(=O)[C@H](C(C)C)NC1=O | 17 |  | > 100
2 | CN1CCN(C(=O)CNC2CC2c2cc(F)cc(F)c2OCc2ccccc2)CC1 (centres undefined) |  |  | > 50

More lines, main results first:

Row | IC50 (HL-60) [µM] | Ki (LSD1/CoREST complex) [µM] | Compound | IC50 (WI-38) [µM]
3 | > 100 |  | CC(C)C[C@H](NC(=O)[C@H](Cc1ccccc1)NC(=O)[C@H](CO)NC(=O)[C@H](CCCNC(=N)N)NC(=O)[C@@H]1CCCN1)C(=O)N[C@H](C(=O)N[C@@H](CCCNC(=N)N)C(=O)N[C@@H](CCCNC(=N)N)C(=O)N[C@@H](CCCCN)C(=O)O)C(C)C (H-PRSFLVRRK-OH) | > 100
4 | > 100 | 0.17 | N=C(N)NCCC[C@H](NC(=O)[C@H](CCCNC(=N)N)NC(=O)[C@H](CCCNC(=N)N)NC(=O)[C@H](CCCNC(=N)N)NC(=O)[C@H](CCCNC(=N)N)NC(=O)[C@H](CCCNC(=N)N)NC(=O)[C@H](CCCNC(=N)N)NC(=O)[C@H](CCCNC(=N)N)NC(=O)[C@H](CCCNC(=N)N)NC(=O)[C@H](CCCNC(=N)N)NC(=O)c1cc(OCc2cn(CCO)nn2)cc(OCc2cn(CCO)nn2)c1)C(N)=O | 
5 | 5.2 |  | CC(C)C[C@@H]1NC(=O)[C@H](Cc2ccccc2)NC(=O)[C@H](CO)NC(=O)[C@H](CCCNC(=N)N)NC(=O)[C@@H]2CCCN2C(=O)OCCSSCCn2cc(nn2)COc2cc(cc(C(=O)N[C@@H](CCCNC(=N)N)C(=O)N[C@@H](CCCNC(=N)N)C(=O)N[C@@H](CCCNC(=N)N)C(=O)N[C@@H](CCCNC(=N)N)C(=O)N[C@@H](CCCNC(=N)N)C(=O)N[C@@H](CCCNC(=N)N)C(=O)N[C@@H](CCCNC(=N)N)C(=O)N[C@@H](CCCNC(=N)N)C(=O)N[C@@H](CCCNC(=N)N)C(=O)N[C@@H](CCCNC(=N)N)C(N)=O)c2)OCc2cn(nn2)CCSSCCOC(=O)NCCCC[C@@H](C(N)=O)NC(=O)[C@H](CCCNC(=N)N)NC(=O)[C@H](CCCNC(=N)N)NC(=O)[C@H](C(C)C)NC1=O | 41
